tested on: not listed separately; experiment: Toxicity in po dosed mouse assessed as mortality after 7 days; conditions: in vivo

Compound	LD50 at 168 h [mg/kg]
CCCCC(CC)C/N=C(\NC#N)Nc1cccnc1 (stereo not given)	> 1000
CC(C)(C)/N=C(\NC#N)Nc1ccc(Cl)nc1Cl	> 1000
CC(C)(C)CC(C)(C)/N=C(\NC#N)Nc1ccncc1	> 1000
CC(C)(C)N/C(=N\C#N)NCCc1ccccn1	800
CC(C)CCCC(C)N/C(=N\C#N)Nc1ccncc1 (stereo not given)	> 1000
CCCC/N=C(\NC#N)Nc1cccnc1	> 1000
CCC(C)(C)N/C(=N\C#N)Nc1ccc[n+]([O-])c1	> 1000
N#CN/C(=N\c1ccccc1)Nc1ccncc1	> 1000
CC(C)(C)/N=C(\NC#N)Nc1ccc(Cl)cn1	800
N#CN/C(=N\Cc1ccccc1)Nc1ccncc1	600
CC(C)(C)/N=C(\NC#N)Nc1cncc(Br)c1	600
CCC(C)/N=C(\NC#N)Nc1cccnc1 (stereo not given)	> 1000
Cc1noc(C)c1N/C(=N/C#N)NC(C)(C)C	> 1000
N#CN/C(=N\C1CCCCC1)Nc1ccccn1	1000
CCC(CC)/N=C(\NC#N)Nc1ccncc1	200
Cc1nn(C)c(N/C(=N/C#N)NC(C)(C)C)c1Cl	> 1000
CC(C)CC/N=C(\NC#N)Nc1cccnc1	> 1000
N#CN/C(=N\C(C1CC1)C1CC1)Nc1ccncc1	600
Cc1cccc(C)c1N/C(=N/C#N)NC(C)(C)C	> 1000
CCC(C)(C)/N=C(\NC#N)Nc1ccncc1	600
N#C/N=C(/Nc1ccncc1)NC12CC3CC(CC(C3)C1)C2	> 1000
N#CN/C(=N\C1CCCC1)Nc1cccnc1	1000
N#CN/C(=N\c1cccnc1)N1CCCCC1	> 1000
CC(C)CC(C)/N=C(\NC#N)Nc1ccncc1 (stereo not given)	1000
CCC(C)(C)N/C(=N\S(=O)(=O)c1ccc(C)cc1)Nc1cccnc1	> 1000
CC(C)(C)N/C(=N\C#N)NCc1ccccn1	600
CN(C)c1ccc(N/C(=N/C#N)NC(C)(C)C)cc1	> 1000
CC(NC(=NC#N)Nc1ccccc1)C(C)(C)C (stereo not given)	> 1000

Compound	LD50 at 168 h [mg/kg]
CCC(C)(C)N/C(=N\O)Nc1cccnc1	600
CCC(C)(CC)/N=C(\NC#N)Nc1cccnc1	> 1000
CCOCC/N=C(\NC#N)Nc1cccnc1	600
Cc1cc(C)c(/N=C(\NC#N)NC(C)(C)C)c(C)n1	> 1000
N#CN/C(=N\Cc1ccccc1)Nc1cccnc1	> 1000
CC(C)(C)/N=C(\NC#N)Nc1cccnc1Cl	> 1000
CO/N=C(/Nc1cccnc1)NC(C)(C)C	> 1000
CCCCC/N=C(\NC#N)Nc1cccnc1	> 1000
CCCC(C)(C)/N=C(\NC#N)Nc1cccnc1	> 1000
CCC(CC)N/C(=N\O)Nc1cccnc1	> 1000
CCOC(=O)/N=C(/Nc1cccnc1)NC(C)(C)CC	600
CCC(C)(C)N/C(=N\C#N)Nc1ccc[n+](C)c1.[I-]	> 1000
CC(C)(C)/N=C(\NC#N)Nc1ccccn1	600
CN1CCN(/C(=N/C#N)NC(C)(C)C)CC1	> 1000
CCOc1ccccc1N/C(=N/C#N)NC(C)(C)CC	> 1000
CC(/N=C(\NC#N)Nc1ccncc1)c1ccccc1 (stereo not given)	600
CCC(C)(C)/N=C(\Nc1cccnc1)Nc1nccs1	> 1000
CCC(C)(CC)/N=C(\NC#N)Nc1ccncc1	300
COc1ccc(N/C(=N/C(C)(C)C)NC#N)cn1	400
CCC(CC)/N=C(\NC#N)Nc1cccnc1	600
CC1(/N=C(\NC#N)Nc2cccnc2)CCC1	> 1000
CCC(C)(C)N/C(=N\C=O)Nc1cccnc1	600
CC(C)(C)N/C(=N\C#N)Nc1ccc(O)cc1	> 1000
CCC(C)(C)N/C(=N\C#N)Nc1ccc(N(C)C)cc1	> 1000
Cc1cc(C)nc(N/C(=N/C(C)(C)C)NC#N)c1	> 1000
N#CN/C(=N\CCc1ccccc1)Nc1cccnc1	> 1000
CC(/N=C(/NC#N)Nc1cccnc1)C(C)(C)C (stereo not given)	1000

tested on: Rattus norvegicus; experiment: Hypotensive activity in po dosed spontaneously hypertensive Wistar-Okamoto rat assessed as dose required to cause 30 mmHg fall of blood pressure administered for 5 days; assay type: functional; conditions: 120 h, read-out: MED

Compound	minimal effective dose [mg/kg]
CCCCC(CC)C/N=C(\NC#N)Nc1cccnc1 (stereo not given)	> 50
CC(C)(C)/N=C(\NC#N)Nc1ccc(Cl)nc1Cl	> 50
CC(C)(C)CC(C)(C)/N=C(\NC#N)Nc1ccncc1	50
CC(C)(C)N/C(=N\C#N)NCCc1ccccn1	25
CC(C)CCCC(C)N/C(=N\C#N)Nc1ccncc1 (stereo not given)	50
CCCC/N=C(\NC#N)Nc1cccnc1	20
CCC(C)(C)N/C(=N\C#N)Nc1ccc[n+]([O-])c1	20
N#CN/C(=N\c1ccccc1)Nc1ccncc1	50
CC(C)(C)/N=C(\NC#N)Nc1ccc(Cl)cn1	25
N#CN/C(=N\Cc1ccccc1)Nc1ccncc1	5
CC(C)(C)/N=C(\NC#N)Nc1cncc(Br)c1	0.5
CCC(C)/N=C(\NC#N)Nc1cccnc1 (stereo not given)	20
Cc1noc(C)c1N/C(=N/C#N)NC(C)(C)C	10
N#CN/C(=N\C1CCCCC1)Nc1ccccn1	> 35
CCC(CC)/N=C(\NC#N)Nc1ccncc1	2.5
Cc1nn(C)c(N/C(=N/C#N)NC(C)(C)C)c1Cl	20
CC(C)CC/N=C(\NC#N)Nc1cccnc1	20
N#CN/C(=N\C(C1CC1)C1CC1)Nc1ccncc1	10
Cc1cccc(C)c1N/C(=N/C#N)NC(C)(C)C	> 50
CCC(C)(C)/N=C(\NC#N)Nc1ccncc1	2.5
N#C/N=C(/Nc1ccncc1)NC12CC3CC(CC(C3)C1)C2	5
N#CN/C(=N\C1CCCC1)Nc1cccnc1	20
N#CN/C(=N\c1cccnc1)N1CCCCC1	20
CC(C)CC(C)/N=C(\NC#N)Nc1ccncc1 (stereo not given)	35
CCC(C)(C)N/C(=N\S(=O)(=O)c1ccc(C)cc1)Nc1cccnc1	> 50
CC(C)(C)N/C(=N\C#N)NCc1ccccn1	> 20
CN(C)c1ccc(N/C(=N/C#N)NC(C)(C)C)cc1	> 50
CC(NC(=NC#N)Nc1ccccc1)C(C)(C)C (stereo not given)	> 50

Compound	minimal effective dose [mg/kg]
CCC(C)(C)N/C(=N\O)Nc1cccnc1	> 20
CCC(C)(CC)/N=C(\NC#N)Nc1cccnc1	0.5
CCOCC/N=C(\NC#N)Nc1cccnc1	> 20
Cc1cc(C)c(/N=C(\NC#N)NC(C)(C)C)c(C)n1	> 50
N#CN/C(=N\Cc1ccccc1)Nc1cccnc1	20
CC(C)(C)/N=C(\NC#N)Nc1cccnc1Cl	5
CO/N=C(/Nc1cccnc1)NC(C)(C)C	50
CCCCC/N=C(\NC#N)Nc1cccnc1	20
CCCC(C)(C)/N=C(\NC#N)Nc1cccnc1	1
CCC(CC)N/C(=N\O)Nc1cccnc1	50
CCOC(=O)/N=C(/Nc1cccnc1)NC(C)(C)CC	20
CCC(C)(C)N/C(=N\C#N)Nc1ccc[n+](C)c1.[I-]	20
CC(C)(C)/N=C(\NC#N)Nc1ccccn1	> 20
CN1CCN(/C(=N/C#N)NC(C)(C)C)CC1	> 50
CCOc1ccccc1N/C(=N/C#N)NC(C)(C)CC	20
CC(/N=C(\NC#N)Nc1ccncc1)c1ccccc1 (stereo not given)	10
CCC(C)(C)/N=C(\Nc1cccnc1)Nc1nccs1	20
CCC(C)(CC)/N=C(\NC#N)Nc1ccncc1	0.5
COc1ccc(N/C(=N/C(C)(C)C)NC#N)cn1	15
CCC(CC)/N=C(\NC#N)Nc1cccnc1	20
CC1(/N=C(\NC#N)Nc2cccnc2)CCC1	50
CCC(C)(C)N/C(=N\C=O)Nc1cccnc1	> 20
CC(C)(C)N/C(=N\C#N)Nc1ccc(O)cc1	> 50
CCC(C)(C)N/C(=N\C#N)Nc1ccc(N(C)C)cc1	> 50
Cc1cc(C)nc(N/C(=N/C(C)(C)C)NC#N)c1	> 50
N#CN/C(=N\CCc1ccccc1)Nc1cccnc1	50
CC(/N=C(/NC#N)Nc1cccnc1)C(C)(C)C (stereo not given)	1
